For data set [1] the following is noted: cited from earlier work.
The subject of data set [2] is template RNA, influenza A(H3N2) NA region 675-1075 bases. The experiment in a line: RT-SmartAmp nucleic acid amplification inhibition due to SDS (DNA polymerase inhibitory activity), without rhinal mucosa. It counts as biochemical. To be noted: 0.5% Triton X-100 in reaction solution, 5 μL of 0.1% SDS solution added; FIG. 10.

Broadly, the pKa is the pH at which an ionisable group is half protonated.

Consider `O=S(=O)(O)CCN1CCOCC1` [MES], for which the pKa in data set [1] is 6.15.
Take Triton X-100: in data set [2], the “nucleic acid amplification activity (mitigation of inhibition due to SDS)” value is given as “prominent nucleic acid amplification was recognized”.

These data come from patent US9518901B2, “Pretreatment method of biological sample, detection method of RNA, and pretreatment kit” (KABUSHIKI KAISHA DNAFORM, priority 2011, dated 2016).
